Experimental data: US11168102B1, “Bicyclic heteroaryl compounds and uses thereof” (Revolution Medicines, Inc., priority 2019, dated 2021)

What was measured:
[1] = target: SOS1 nucleotide exchange of wild-type KRAS (Homo sapiens (Human), UniProt Q07889); assay: Mode of action assay: inhibition of SOS1 nucleotide exchange activity (TR-FRET); type: biochemical; settings: SOS1 catalytic domain (564-1049), avi-tagged KRAS (1-169), EDA-GTP-DY-647P1; three replicates
[2] = tested on: cellular pERK in PC-9 cells (EGFR Ex19Del); assay: Potency assay: pERK (AlphaLISA SureFire Ultra p-ERK1/2) in PC-9 cells; type: cell-based; settings: Homo sapiens, PC-9, 1 h, PC-9 cells (EGFR Ex19Del), 1 hour incubation, AlphaLISA SureFire Ultra p-ERK1/2; read-out: SOS1 pERK IC50
[3] = target: SOS1 catalytic domain (residues 564-1049) (Homo sapiens (Human), UniProt Q07889); assay: Potency assay: binding affinity to SOS1 by Surface Plasmon Resonance (SPR); settings: avi-tagged SOS1 catalytic domain immobilized on sensor chip; 1:1 equilibrium binding fit
Chain of SOS1 catalytic domain (residues 564-1049) (Q07889 564-1049): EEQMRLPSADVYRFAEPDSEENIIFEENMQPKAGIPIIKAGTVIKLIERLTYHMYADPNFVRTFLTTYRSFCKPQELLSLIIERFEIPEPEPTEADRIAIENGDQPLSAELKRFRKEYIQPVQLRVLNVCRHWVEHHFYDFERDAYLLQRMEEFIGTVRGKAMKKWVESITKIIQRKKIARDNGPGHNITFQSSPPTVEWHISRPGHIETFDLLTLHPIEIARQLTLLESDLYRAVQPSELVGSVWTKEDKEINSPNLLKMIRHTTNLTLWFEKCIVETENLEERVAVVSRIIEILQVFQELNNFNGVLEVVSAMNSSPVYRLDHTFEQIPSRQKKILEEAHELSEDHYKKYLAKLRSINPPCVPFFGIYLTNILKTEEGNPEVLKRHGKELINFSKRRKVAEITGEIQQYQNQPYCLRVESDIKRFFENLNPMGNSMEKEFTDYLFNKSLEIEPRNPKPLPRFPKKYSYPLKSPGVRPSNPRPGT

Chain of SOS1 nucleotide exchange of wild-type KRAS (Q07889 564-1049): as above

Compound | IC50 [1] | IC50 [2] | Kd [3]
C[C@@H](Nc1ncnc2c1cc(C1(F)CCS(=O)(=NC3CC3)CC1)c(=O)n2C)c1cccc(C(F)F)c1F (single isomer, unassigned) [Example 57] | 0.00765 µM | 0.0426 µM | 0.00919 µM
C[C@@H](Nc1ncnc2c1cc(C1=CCNC1)c(=O)n2C)c1cccc(C(F)F)c1F [Example 1-1] | 0.0415 µM | 0.14 µM | 0.0591 µM
C[C@@H](Nc1ncnc2c1cc(C1=CCNCC1)c(=O)n2C)c1cccc(C(F)(F)F)c1 [Example 1-2] | 0.0238 µM | 0.114 µM | 0.0134 µM
C[C@@H](Nc1ncnc2c1cc(C1=CCNCC1)c(=O)n2C)c1cccc(C(F)F)c1F [Example 1-3] | 0.0212 µM | 0.0503 µM | 0.00786 µM
C[C@@H](Nc1ncnc2c1cc(C1=CCOCC1)c(=O)n2C)c1cccc(C(F)F)c1F [Example 1-5] | 0.032 µM | 0.222 µM | 0.0163 µM
Cc1nc(N[C@H](C)c2cccc(C(F)F)c2F)c2cc(C3=CCOC3)c(=O)n(C)c2n1 [Example 1-7] | 0.257 µM | 0.693 µM | 0.353 µM
C[C@@H](Nc1ncnc2c1cc(C1=CCN(C)CC1)c(=O)n2C)c1cccc(C(F)(F)F)c1 [Example 1-8] | 0.0201 µM | 0.169 µM | 0.02 µM
Cc1nc(N[C@H](C)c2cccc(C(F)F)c2F)c2cc(C3=CCNCC3)c(=O)n(C)c2n1 [Example 1-9] | 0.0489 µM | 0.666 µM | 0.074 µM
Cc1nc(N[C@H](C)c2cccc(C(F)F)c2F)c2cc(C3=CCN(C)CC3)c(=O)n(C)c2n1 [Example 1-10] | 0.0429 µM | 0.425 µM | 0.0232 µM
CC(=O)N1CC=C(c2cc3c(N[C@H](C)c4cccc(C(F)F)c4C)ncnc3n(C)c2=O)CC1 [Example 1-11] | 0.0293 µM | 0.077 µM | 0.0546 µM
CC(=O)N1CC=C(c2cc3c(N[C@H](C)c4cccc(C(C)(F)F)c4)ncnc3n(C)c2=O)CC1 [Example 1-12] | 0.034 µM | 0.125 µM | 0.0368 µM
C[C@@H](Nc1ncnc2c1cc(C1=C[C@H]3CNC[C@@H](C1)O3)c(=O)n2C)c1cccc(C(F)F)c1F [Example 1-13] | 0.0193 µM | 0.195 µM | 0.0138 µM
CC(=O)N1CCC=C(c2cc3c(N[C@H](C)c4cccc(C(F)F)c4F)ncnc3n(C)c2=O)C1 [Example 1-14] | 0.053 µM | 0.218 µM | 0.019 µM
C[C@@H](Nc1ncnc2c1cc(C1=C[C@@H]3CNC[C@H](C1)O3)c(=O)n2C)c1cccc(C(F)F)c1F [Example 1-15] | 0.0398 µM | 0.217 µM | 0.00629 µM
C[C@@H](Nc1ncnc2c1cc(C1=CCS(=O)(=O)CC1)c(=O)n2C)c1cccc(C(F)F)c1F [Example 1-17] | 0.013 µM | 0.0507 µM | 0.0213 µM
CC(=O)N1CC=C(c2cc3c(N[C@H](C)c4cccc5c4OCC5(F)F)ncnc3n(C)c2=O)CC1 [Example 1-18] | 0.0128 µM | 0.067 µM | 0.022 µM
CC(=O)N1CC=C(c2cc3c(N[C@H](C)c4cccc(C(F)(F)F)c4C)ncnc3n(C)c2=O)CC1 [Example 1-19] | 0.0443 µM | 0.091 µM | 0.144 µM
CC(=O)N1CC=C(c2cc3c(N[C@H](C)c4cccc(C(F)F)c4F)nc(C)nc3n(C)c2=O)CC1 [Example 1-21] | 0.0956 µM | 0.173 µM | 0.137 µM
CC(=O)N1CC=C(c2cc3c(N[C@H](C)c4cccc(C(F)F)c4Cl)ncnc3n(C)c2=O)CC1 [Example 1-23] | 0.094 µM | 0.0702 µM | 0.122 µM
Cc1nc(N[C@H](C)c2cccc(C(F)F)c2F)c2cc(C3=CCS(=O)(=O)CC3)c(=O)n(C)c2n1 [Example 1-25] | 0.0673 µM | 0.0837 µM | 0.101 µM
Cc1nc(N[C@H](C)c2cccc(C(F)F)c2F)c2cc(C3=CCN(C4COC4)CC3)c(=O)n(C)c2n1 [Example 1-26] | 0.0264 µM | 0.26 µM | 0.061 µM
Cc1nc(N[C@H](C)c2cccc(C(F)F)c2F)c2cc(C3CCOC3)c(=O)n(C)c2n1 (stereo partly drawn) [Example 1-29] | 0.129 µM | 0.309 µM | 0.157 µM
C[C@@H](Nc1ncnc2c1cc(C1CCOCC1)c(=O)n2C)c1cccc(C(F)F)c1F [Example 1-30] | 0.0458 µM | 0.143 µM | 0.0201 µM
Cc1nc(N[C@H](C)c2cccc(C(F)F)c2F)c2cc(N3CC(F)(F)C3)c(=O)n(C)c2n1 [Example 2-2] | 2.08 µM | 0.427 µM | –
Cc1nc(N[C@H](C)c2cccc(C(F)F)c2F)c2cc(N3CC4(COC4)C3)c(=O)n(C)c2n1 [Example 2-3] | – | 0.188 µM | 0.089 µM
Cc1nc(N[C@H](C)c2cccc(C(F)F)c2F)c2cc(N3CCNCC3=O)c(=O)n(C)c2n1 [Example 2-4] | 0.0892 µM | 0.906 µM | 0.153 µM
Cc1nc(N[C@H](C)c2cccc(C(F)F)c2F)c2cc(N3CCN(C)CC3=O)c(=O)n(C)c2n1 [Example 2-5] | 0.112 µM | 0.824 µM | 0.097 µM

Compound | IC50 [1] | IC50 [2] | Kd [3]
C[C@@H](Nc1ncnc2c1cc(C1CN(C)CCO1)c(=O)n2C)c1cccc(C(F)F)c1F (stereo partly drawn) [Example 8-1] | 0.0246 µM | 0.0684 µM | 0.0242 µM
Cc1nc(N[C@H](C)c2cccc(C(F)F)c2F)c2cc(C3CCN(C)CC3)c(=O)n(C)c2n1 [Example 8-2] | 0.0212 µM | 0.265 µM | 0.0644 µM
C[C@@H](Nc1ncnc2c1cc(C1CCN(CCF)CC1)c(=O)n2C)c1cccc(C(F)F)c1F [Example 8-4] | 0.00766 µM | – | 0.0294 µM
C[C@@H](Nc1ncnc2c1cc(C1CCS(=O)(=O)CC1)c(=O)n2C)c1cccc(C(F)F)c1F [Example 8-5] | 0.0128 µM | – | 0.0376 µM
C[C@@H](Nc1ncnc2c1cc(C1CCN(C3COC3)CC1)c(=O)n2C)c1cccc(C(F)F)c1F [Example 8-8] | 0.0305 µM | – | 0.062 µM
CC(=O)N1CCC(c2cc3c(N[C@H](C)c4cccc(C(F)F)c4F)nc(C)nc3n(C)c2=O)CC1 [Example 8-9] | 0.0536 µM | – | 0.12 µM
Cc1nc(N[C@H](C)c2cccc(C(F)F)c2F)c2cc(C3CCS(=O)(=O)CC3)c(=O)n(C)c2n1 [Example 8-12] | 0.065 µM | – | 0.0834 µM
C[C@@H](Nc1ncnc2c1cc(C1CCN(CC(F)F)CC1)c(=O)n2C)c1cccc(C(F)F)c1F [Example 8-13] | 0.0398 µM | – | 0.156 µM
Cc1nc(N[C@H](C)c2cccc(C(F)F)c2F)c2cc(C3CCN(C4COC4)CC3)c(=O)n(C)c2n1 [Example 8-14] | 0.0812 µM | – | 0.2 µM
C[C@@H](Nc1ncnc2c1cc(C1CCN(S(C)(=O)=O)CC1)c(=O)n2C)c1cccc(C(F)F)c1F [Example 8-15] | 0.0401 µM | – | 0.0904 µM
C[C@@H](Nc1ncnc2c1cc(C1CCN(CC(F)(F)F)CC1)c(=O)n2C)c1cccc(C(F)F)c1F [Example 8-16] | 0.0775 µM | – | 0.136 µM
Cc1nc(N[C@H](C)c2cccc(C(F)F)c2F)c2cc(C3CCN(CC(F)(F)F)CC3)c(=O)n(C)c2n1 [Example 8-17] | 0.708 µM | – | 0.796 µM
Cc1nc(N[C@H](C)c2cccc(C(F)F)c2F)c2cc(C3=CCCOC3)c(=O)n(CCO)c2n1 [Example 11-1] | – | – | 0.0813 µM
COc1ccc(Cc2cc3c(N[C@H](C)c4cccc(C(F)F)c4F)nc(C)nc3n(C)c2=O)cc1OC [Example 20-1] | 6.17 µM | – | –
COc1cccc(Cc2cc3c(N[C@H](C)c4cccc(C(F)F)c4F)nc(C)nc3n(C)c2=O)c1OC [Example 20] | > 20 µM | – | –
C[C@@H](Nc1ncnc2c1cc(-c1ccc[nH]1)c(=O)n2C)c1cccc(C(F)F)c1F [Example 21-1] | 1.07 µM | – | 1.16 µM
C[C@@H](Nc1ncnc2c1cc(-c1cncnc1)c(=O)n2C)c1cccc(C(F)F)c1F [Example 21-2] | 0.0429 µM | – | 0.0854 µM
Cc1nc(N[C@H](C)c2cccc(C(F)F)c2F)c2cc(-c3ccnnc3)c(=O)n(C)c2n1 [Example 21-3] | 0.12 µM | – | 0.33 µM
Cc1nc(N[C@H](C)c2cccc(C(F)F)c2F)c2cc(-c3cncnc3)c(=O)n(C)c2n1 [Example 21-4] | 0.172 µM | – | 0.272 µM
C[C@@H](Nc1ncnc2c1cc(-c1cnc(F)nc1)c(=O)n2C)c1cccc(C(F)F)c1F [Example 21-5] | 0.126 µM | – | 0.115 µM
C[C@@H](Nc1ncnc2c1cc(-c1ccccc1C#N)c(=O)n2C)c1cccc(C(F)F)c1F [Example 21-6] | 0.0864 µM | – | 0.118 µM
COc1ncccc1-c1cc2c(N[C@H](C)c3cccc(C(F)F)c3F)ncnc2n(C)c1=O [Example 21-7] | 0.0471 µM | – | 0.0925 µM
C[C@@H](Nc1ncnc2c1cc(-c1ccc3nonc3c1)c(=O)n2C)c1cccc(C(F)F)c1F [Example 21-8] | 0.235 µM | – | 0.336 µM
COc1ncccc1-c1cc2c(N[C@H](C)c3cccc(C(F)F)c3F)nc(C)nc2n(C)c1=O [Example 21-9] | 0.099 µM | 0.335 µM | 0.338 µM
C[C@@H](Nc1ncnc2c1cc(C(=O)N1CC3CC1CO3)c(=O)n2C)c1cccc(C(F)F)c1F (stereo partly drawn) [Example 26-6] | > 20 µM | 8.83 µM | –
COC1(c2cc3c(N[C@H](C)c4cccc(C(F)F)c4F)nc(C)nc3n(C)c2=O)CCN(C(C)=O)CC1 [Example 32-32] | 0.00477 µM | 0.00979 µM | –
COC1(c2cc3c(N[C@H](C)c4ccnc(C(F)F)c4F)ncnc3n(C)c2=O)CCN(C(C)=O)CC1 [Example 71, 6-(1-acetyl-4-methoxy-4-piperidyl)-4-[[(1R)-1-[2-(difluoromethyl)-3-fluoro-4-pyridyl]ethyl]amino]-8-methyl-pyrido-[2,3-d]pyrimidin-7-one] | – | 0.528 µM | –
